Patent US20230077362A1 (CORTEVA AGRISCIENCE LLC, priority 2019, published 2023)

Legend:
[1] = tested on: Beet Armyworm (Spodoptera exigua) ("BAW"), second instar larvae; experiment: Bioassay on beet armyworm (BAW), 128-well diet tray assay; format: in vivo; conditions: Spodoptera exigua, read-out: BAW (Biological Results, rating)
In short: (§1)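 Read-out: percent larval mortality per well, averaged over 8 wells. Incubation 25° C., 14:10 L:D photoperiod, 5–7 days, trays sealed with clear adhesive cover.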

[2] = tested on: Cabbage Looper (Trichoplusia ni) ("CL"), second instar larvae; experiment: Bioassay on cabbage looper (CL), 128-well diet tray assay; format: in vivo; conditions: Trichoplusia ni, read-out: CL (Biological Results, rating)
In short: as §1

## CCCNc1ccc(C(C)C)c(N2C(=O)CS/C2=N\C(=O)Nc2ccc(-c3ncn(-c4ccc(OC(F)(F)F)cc4)n3)cc2C)c1 [Compound J128, (Z)-1-(3-(2-Isopropyl-5-(propylamino)phenyl)-4-oxothiazolidin-2-ylidene)-3-(2-methyl-4-(1-(4-(trifluoromethoxy)phenyl)-1H-1,2,4-triazol-3-yl)phenyl)urea]
[1]
  pest or weed control at 50 µg/cm2: 50 to 100%
[2]
  pest or weed control at 50 µg/cm2: 50 to 100%

## CCN(CC)c1ccc(C(C)C)c(N2C(=O)CS/C2=N\C(=O)Nc2ccc(-c3ncn(-c4ccc(OC(F)(F)F)cc4)n3)cc2C)c1 [Compound J129, (Z)-1-(3-(5-(Diethylamino)-2-isopropylphenyl)-4-oxothiazolidin-2-ylidene)-3-(2-methyl-4-(1-(4-(trifluoromethoxy)phenyl)-1H-1,2,4-triazol-3-yl)phenyl)urea]
[1]
  pest or weed control at 50 µg/cm2: 50 to 100%
[2]
  pest or weed control at 50 µg/cm2: 50 to 100%

## CCCN(CCC)c1ccc(C(C)C)c(N2C(=O)CS/C2=N\C(=O)Nc2ccc(-c3ncn(-c4ccc(OC(F)(F)F)cc4)n3)cc2C)c1 [Compound J130, (Z)-1-(3-(5-(Dipropylamino)-2-isopropylphenyl)-4-oxothiazolidin-2-ylidene)-3-(2-methyl-4-(1-(4-(trifluoromethoxy)phenyl)-1H-1,2,4-triazol-3-yl)phenyl)urea]
[1]
  pest or weed control at 50 µg/cm2: 50 to 100%
[2]
  pest or weed control at 50 µg/cm2: 50 to 100%

## Cc1ccc(C(C)C)c(N2C(=O)CS/C2=N\C(=O)Nc2ccc(-c3ncn(-c4cccc(C(F)(F)F)c4)n3)cc2C)c1 [Compound J131, (Z)-1-(3-(2-Isopropyl-5-methylphenyl)-4-oxothiazolidin-2-ylidene)-3-(2-methyl-4-(1-(3-(trifluoromethyl)phenyl)-1H-1,2,4-triazol-3-yl)phenyl)urea]
[1]
  pest or weed control at 50 µg/cm2: 50 to 100%
[2]
  pest or weed control at 50 µg/cm2: 50 to 100%

## Cc1ccc(C(C)C)c(N2C(=O)CS/C2=N\C(=O)Nc2ccc(-c3ncn(-c4cccc(C(F)(F)F)c4)n3)cc2F)c1 [Compound J140, (Z)-1-(2-Fluoro-4-(1-(3-(trifluoromethyl)phenyl)-1H-1,2,4-triazol-3-yl)phenyl)-3-(3-(2-isopropyl-5-methylphenyl)-4-oxothiazolidin-2-ylidene)urea]
[1]
  pest or weed control at 50 µg/cm2: 50 to 100%
[2]
  pest or weed control at 50 µg/cm2: 50 to 100%

## COc1ccc(-n2cnc(-c3ccc(NC(=O)/N=C4\SCC(=O)N4c4cc(C)ccc4C(C)C)c(F)c3)n2)cc1 [Compound J144, (Z)-1-(2-Fluoro-4-(1-(4-methoxyphenyl)-1H-1,2,4-triazol-3-yl)phenyl)-3-(3-(2-isopropyl-5-methylphenyl)-4-oxothiazolidin-2-ylidene)urea]
[1]
  pest or weed control at 50 µg/cm2: 50 to 100%
[2]
  pest or weed control at 50 µg/cm2: 50 to 100%

## COc1ccc(-n2cnc(-c3ccc(NC(=O)/N=C4\SCC(=O)N4c4cc(C)ccc4OCCC(F)(F)F)c(F)c3)n2)cc1 [Compound J147, (Z)-1-(2-Fluoro-4-(1-(4-methoxyphenyl)-1H-1,2,4-triazol-3-yl)phenyl)-3-(3-(5-methyl-2-(3,3,3-trifluoropropoxy)phenyl)-4-oxothiazolidin-2-ylidene)urea]
[1]
  pest or weed control at 50 µg/cm2: 50 to 100%
[2]
  pest or weed control at 50 µg/cm2: 50 to 100%

## Cc1ccc(-n2cnc(-c3ccc(NC(=O)/N=C4\SCC(=O)N4c4cc(N(C)C)ccc4C(C)C)c(F)c3)n2)cc1 [Compound J150, (Z)-1-(3-(5-(Dimethylamino)-2-isopropylphenyl)-4-oxothiazolidin-2-ylidene)-3-(2-fluoro-4-(1-(p-tolyl)-1H-1,2,4-triazol-3-yl)phenyl)urea]
[1]
  pest or weed control at 50 µg/cm2: 50 to 100%
[2]
  pest or weed control at 50 µg/cm2: 50 to 100%

## CC(C)c1ccc(N(C)C)cc1N1C(=O)CS/C1=N\C(=O)Nc1ccc(-c2ncn(-c3cccc(OC(F)(F)F)c3)n2)cc1F [Compound J155, (Z)-1-(3-(5-(Dimethylamino)-2-isopropylphenyl)-4-oxothiazolidin-2-ylidene)-3-(2-fluoro-4-(1-(3-(trifluoromethoxy)phenyl)-1H-1,2,4-triazol-3-yl)phenyl)urea]
[1]
  pest or weed control at 50 µg/cm2: 50 to 100%
[2]
  pest or weed control at 50 µg/cm2: 50 to 100%

## CCc1cc(-c2ncn(-c3ccc(OC(F)(F)F)cc3)n2)ccc1NC(=O)/N=C1\SCC(=O)N1c1cc(NC)ccc1C(C)C [Compound J157, (Z)-1-(2-Ethyl-4-(1-(4-(trifluoromethoxy)phenyl)-1H-1,2,4-triazol-3-yl)phenyl)-3-(3-(2-isopropyl-5-(methylamino)phenyl)-4-oxothiazolidin-2-ylidene)urea]
[1]
  pest or weed control at 50 µg/cm2: 50 to 100%
[2]
  pest or weed control at 50 µg/cm2: 50 to 100%

## CCNc1ccc(C(C)C)c(N2C(=O)CS/C2=N\C(=O)Nc2ccc(-c3ncn(-c4ccc(OC(F)(F)F)cc4)n3)cc2CC)c1 [Compound J158, (Z)-1-(2-Ethyl-4-(1-(4-(trifluoromethoxy)phenyl)-1H-1,2,4-triazol-3-yl)phenyl)-3-(3-(5-(ethylamino)-2-isopropylphenyl)-4-oxothiazolidin-2-ylidene)urea]
[1]
  pest or weed control at 50 µg/cm2: 50 to 100%
[2]
  pest or weed control at 50 µg/cm2: 50 to 100%

## CCCNc1ccc(C(C)C)c(N2C(=O)CS/C2=N\C(=O)Nc2ccc(-c3ncn(-c4ccc(OC(F)(F)F)cc4)n3)cc2CC)c1 [Compound J159, (Z)-1-(2-Ethyl-4-(1-(4-(trifluoromethoxy)phenyl)-1H-1,2,4-triazol-3-yl)phenyl)-3-(3-(2-isopropyl-5-(propylamino)phenyl)-4-oxothiazolidin-2-ylidene)urea]
[1]
  pest or weed control at 50 µg/cm2: 50 to 100%
[2]
  pest or weed control at 50 µg/cm2: 50 to 100%

## CCc1cc(-c2ncn(-c3ccc(OC(F)(F)F)cc3)n2)ccc1NC(=O)/N=C1\SCC(=O)N1c1cc(N(CC)CC)ccc1C(C)C [Compound J160, (Z)-1-(3-(5-(Diethylamino)-2-isopropylphenyl)-4-oxothiazolidin-2-ylidene)-3-(2-ethyl-4-(1-(4-(trifluoromethoxy)phenyl)-1H-1,2,4-triazol-3-yl)phenyl)urea]
[1]
  pest or weed control at 50 µg/cm2: 50 to 100%
[2]
  pest or weed control at 50 µg/cm2: 50 to 100%

## CCCN(CCC)c1ccc(C(C)C)c(N2C(=O)CS/C2=N\C(=O)Nc2ccc(-c3ncn(-c4ccc(OC(F)(F)F)cc4)n3)cc2CC)c1 [Compound J161, (Z)-1-(3-(5-(Dipropylamino)-2-isopropylphenyl)-4-oxothiazolidin-2-ylidene)-3-(2-ethyl-4-(1-(4-(trifluoromethoxy)phenyl)-1H-1,2,4-triazol-3-yl)phenyl)urea]
[1]
  pest or weed control at 50 µg/cm2: 50 to 100%
[2]
  pest or weed control at 50 µg/cm2: 0 to 50%

## CC(C)c1cc(F)c(N(C)C)cc1N1C(=O)CS/C1=N\C(=O)Nc1ccc(-c2ncn(-c3ccc(OC(F)(F)F)cc3)n2)cc1F [Compound J162, (Z)-1-(3-(5-(Dimethylamino)-4-fluoro-2-isopropylphenyl)-4-oxothiazolidin-2-ylidene)-3-(2-fluoro-4-(1-(4-(trifluoromethoxy)phenyl)-1H-1,2,4-triazol-3-yl)phenyl)urea]
[1]
  pest or weed control at 50 µg/cm2: 50 to 100%
[2]
  pest or weed control at 50 µg/cm2: 50 to 100%

## Cc1ccc([N+](=O)[O-])c(N2C(=O)CS/C2=N\C(=O)Nc2ccc(-c3ncn(-c4ccc(OC(F)(F)F)cc4)n3)cc2F)c1 [Compound J163, (Z)-1-(2-Fluoro-4-(1-(4-(trifluoromethoxy)phenyl)-1H-1,2,4-triazol-3-yl)phenyl)-3-(3-(5-methyl-2-nitrophenyl)-4-oxothiazolidin-2-ylidene)urea]
[1]
  pest or weed control at 50 µg/cm2: 50 to 100%
[2]
  pest or weed control at 50 µg/cm2: 50 to 100%

## CC(C)c1ccc(C(C)C)c(N2C(=O)CS/C2=N\C(=O)Nc2ccc(-c3ncn(-c4ccc(OC(F)(F)F)cc4)n3)cc2F)c1 [Compound J164, (Z)-1-(3-(2,5-Diisopropylphenyl)-4-oxothiazolidin-2-ylidene)-3-(2-fluoro-4-(1-(4-(trifluoromethoxy)phenyl)-1H-1,2,4-triazol-3-yl)phenyl)urea]
[1]
  pest or weed control at 50 µg/cm2: 50 to 100%
[2]
  pest or weed control at 50 µg/cm2: 50 to 100%

## Cc1ccc(COCC(F)(F)F)c(N2C(=O)CS/C2=N\C(=O)Nc2ccc(-c3ncn(-c4ccc(OC(F)(F)F)cc4)n3)cc2C(F)(F)F)c1 [Compound J165, (Z)-1-(3-(5-Methyl-2-((2,2,2-trifluoroethoxy)methyl)phenyl)-4-oxothiazolidin-2-ylidene)-3-(4-(1-(4-(trifluoromethoxy)phenyl)-1H-1,2,4-triazol-3-yl)-2-(trifluoromethyl)phenyl)urea]
[1]
  pest or weed control at 50 µg/cm2: 50 to 100%
[2]
  pest or weed control at 50 µg/cm2: 50 to 100%

## CC(C)c1ccc(N(C)C)cc1N1C(=O)CS/C1=N\C(=O)Nc1ccc(-c2ncn(-c3ccc(OC(F)(F)F)cc3)n2)cc1Cl [Compound J166, (Z)-1-(2-Chloro-4-(1-(4-(trifluoromethoxy)phenyl)-1H-1,2,4-triazol-3-yl)phenyl)-3-(3-(5-(dimethylamino)-2-isopropylphenyl)-4-oxothiazolidin-2-ylidene)urea]
[1]
  pest or weed control at 50 µg/cm2: 50 to 100%
[2]
  pest or weed control at 50 µg/cm2: 50 to 100%

## Cc1ccc(COCC(F)(F)F)c(N2C(=O)CS/C2=N\C(=O)Nc2ccc(-c3ncn(-c4ccc(C(F)(F)F)cc4)n3)cc2C)c1 [Compound J167, (Z)-1-(3-(5-Methyl-2-((2,2,2-trifluoroethoxy)methyl)phenyl)-4-oxothiazolidin-2-ylidene)-3-(2-methyl-4-(1-(4-(trifluoromethyl)phenyl)-1H-1,2,4-triazol-3-yl)phenyl)urea]
[1]
  pest or weed control at 50 µg/cm2: 50 to 100%
[2]
  pest or weed control at 50 µg/cm2: 50 to 100%

## COCOc1cc(-c2ncn(-c3ccc(OC(F)(F)F)cc3)n2)ccc1NC(=O)/N=C1\SCC(=O)N1c1cc(C)ccc1C(C)C [Compound J170, (Z)-1-(3-(2-Isopropyl-5-methylphenyl)-4-oxothiazolidin-2-ylidene)-3-(2-(methoxymethoxy)-4-(1-(4-(trifluoromethoxy)phenyl)-1H-1,2,4-triazol-3-yl)phenyl)urea]
[1]
  pest or weed control at 50 µg/cm2: 50 to 100%
[2]
  pest or weed control at 50 µg/cm2: 50 to 100%

## COCOc1cc(-c2ncn(-c3ccc(OC(F)(F)F)cc3)n2)ccc1NC(=O)/N=C1\SCC(=O)N1c1cc(C)ccc1OCC(F)(F)F [Compound J171, (Z)-1-(2-(Methoxymethoxy)-4-(1-(4-(trifluoromethoxy)phenyl)-1H-1,2,4-triazol-3-yl)phenyl)-3-(3-(5-methyl-2-(2,2,2-trifluoroethoxy)phenyl)-4-oxothiazolidin-2-ylidene)urea]
[1]
  pest or weed control at 50 µg/cm2: 50 to 100%
[2]
  pest or weed control at 50 µg/cm2: 50 to 100%
